What was measured:
CDK2/CycE = target: T1, CDK2/CycE (Homo sapiens, UniProt P24941); experiment: CDK2/CycE kinase assay (TR-FRET, 2 mM ATP); format: biochemical; conditions: read-out: CDK2/CyclinE, 2 mM ATP (high ATP) IC50-[mol/l] (median)
T1 construct: purchased ProQinase GmbH (Freiburg, Germany); host or cells: insect cells (Sf9)
Source text: CDK2/CycE-inhibitory activity of compounds of the present invention was quantified employing the CDK2/CycE TR-FRET assay as described in the following paragraphs.
Recombinant fusion proteins of GST and human CDK2 and of GST and human CycE, expressed in insect cells (Sf9) and purified by Glutathion-Sepharose affinity chromatography, were purchase from ProQinase GmbH (Freiburg, Germany). As substrate for the kinase reaction biotinylated peptide biotin-Ttds-YISPLKSPYKISEG (C-terminus in amid form) was used which can be purchased e.g. form the company JERINI peptide technologies (Berlin, Germany).
For the assay 50 nanoL of a 100 fold concentrated solution of the test compound in DMSO was pipetted into a black low volume 384 well microtiter plate or a black 1536 well microtiter plate (both Greiner Bio-One, Frickenhausen, Germany), 2 microL of a solution of CDK2/CycE in aqueous assay buffer [50 millimol/L Tris/HCl pH 8.0, 10 millimol/L MgCl2, 1.0 millimol/L dithiothreitol, 0.1 millimol/L sodium ortho-vanadate, 0.01% (v/v) Nonidet-P40 (Sigma)] were added and the mixture was incubated for 15 min at 22° C. to allow pre-binding of the test compounds to the enzyme before the start of the kinase reaction. Then the kinase reaction was started by the addition of 3 microL of a solution of adenosine-tri-phosphate (ATP, 3.33 millimol/L=> final conc. in the 5 microL assay volume is 2 millimol/L) and substrate (1.25 micromol/L=> final conc. in the 5 microL assay volume is 0.75 micromol/L) in assay buffer and the resulting mixture was incubated for a reaction time of 25 min at 22° C. The concentration of CDK2/CycE was adjusted depending of the activity of the enzyme lot and was chosen appropriate to have the assay in the linear range, typical concentrations were in the range of 10 ng/ml. The reaction was stopped by the addition of 3 microL of a solution of TR-FRET detection reagents (0.333 micromol/L streptavidine-XL665 [Cisbio Bioassays, Codolet, France] and 1.67 nanomol/L anti-RB(pSer807/pSer8l 1)-antibody from BD Pharmingen [#558389] and 2 nanomol/L LANCE EU-W1024 labeled anti-mouse IgG antibody [Perkin-Elmer, product no. AD0077, as an alternative a Terbium-cryptate-labeled anti-mouse IgG antibody from Cisbio Bioassays can be used]) in an aqueous EDTA-solution (167 millimol/L EDTA, 0.2% (w/v) bovine serum albumin in 100 millimol/L HEPES pH 7.5).
The resulting mixture was incubated 1 h at 22° C. to allow the formation of complex between the phosphorylated biotinylated peptide and the detection reagents. Subsequently the amount of phosphorylated substrate was evaluated by measurement of the resonance energy transfer from the Eu-chelate to the streptavidine-XL. Therefore, the fluorescence emissions at 620 nm and 665 nm after excitation at 350 nm was measured in a TR-FRET reader, e.g. a Pherastar (BMG Labtechnologies, Offenburg, Germany) or a Viewlux (Perkin-Elmer). The ratio of the emissions at 665 nm and at […] was taken as the measure for the amount of phosphorylated substrate. The data were normalised (enzyme reaction without inhibitor=0% inhibition, all other assay components but no enzyme=100% inhibition).

[1] = test system: MDA-MB-231 human breast cancer cells; experiment: Proliferation assay MDA-MB-231 (crystal violet); format: cell-based; conditions: 96 h, MDA-MB-231 cells, 4 days, read-out: Prolif-MDA MB231 IC50-[mol/l] (median)
Description: Human tumour cells were originally obtained from the American Type Culture Collection (ATCC), or from the Deutsche Sammlung von Mikroorganismen und Zellkulturen (DSMZ, German Collection of Microorganisms and Cell Cultures). Cultivated tumour cells (CAL-120, human breast adenocarcinoma cells, DSMZ ACC-459; MDA-MB-231, human breast cancer cells, ATCC HTB-26) were plated at a density of 4,000 cells/well in a 96-well multititer plate in 200 microL of their respective growth medium supplemented 10% fetal calf serum. After 24 hours, the cells of one plate (zero-point plate) were stained with crystal violet (see below), while the medium of the other plates was supplemented with the test substances in various concentrations (0 micromol/L, as well as in the range of 0.01-10 micromol/L; the final concentration of the solvent dimethyl sulfoxide was adjusted to 0.1%) using a Tecan HP D300 Digital Dispenser. The cells were incubated for 4 days in the presence of test substances. Cell proliferation was determined by staining the cells with crystal violet: the cells were fixed by adding 20 microL/measuring point of an 11% glutaric aldehyde solution for 15 minutes at room temperature. After three washing cycles of the fixed cells with water, the plates were dried at room temperature. The cells were stained by adding 100 microL/measuring point of a 0.1% crystal violet solution (pH 3.0). After three washing cycles of the stained cells with water, the plates were dried at room temperature. The dye was dissolved by adding 100 microL/measuring point of a 10% acetic acid solution. The extinction was determined by photometry at a wavelength of 595 nm. The change of cell number, in percent, was calculated by normalization of the measured values to the extinction values of the zero-point plate (=0%) and the extinction of the untreated (0 μM) cells (=100%). The IC50 values (inhibitory concentration at 50% of maximal effect) were determined by means of a 4 parameter fit.

CDK12 = target: T2, CDK12 (Homo sapiens, UniProt Q9NYV4); experiment: CDK12 nuclear protein level: immunofluorescence/high content analysis in CAL-120 cells; format: cell-based; conditions: for DC50: CAL-120 cells, 24 h, nuclear CDK12 staining, read-out: CDK12 degradation IF DC50-[mol/l] (median); for (IC50 CDK12 high ATP) to (Degradation DC50 CDK12) ratio: IC50 CDK12 hATP (Table 2) divided by DC50 CDK12 IF (Table 8)
T2 construct: endogenous in cells; host or cells: CAL-120 human breast cancer cells (DSMZ ACC 459)
T2 sequence (Q9NYV4 whole entry): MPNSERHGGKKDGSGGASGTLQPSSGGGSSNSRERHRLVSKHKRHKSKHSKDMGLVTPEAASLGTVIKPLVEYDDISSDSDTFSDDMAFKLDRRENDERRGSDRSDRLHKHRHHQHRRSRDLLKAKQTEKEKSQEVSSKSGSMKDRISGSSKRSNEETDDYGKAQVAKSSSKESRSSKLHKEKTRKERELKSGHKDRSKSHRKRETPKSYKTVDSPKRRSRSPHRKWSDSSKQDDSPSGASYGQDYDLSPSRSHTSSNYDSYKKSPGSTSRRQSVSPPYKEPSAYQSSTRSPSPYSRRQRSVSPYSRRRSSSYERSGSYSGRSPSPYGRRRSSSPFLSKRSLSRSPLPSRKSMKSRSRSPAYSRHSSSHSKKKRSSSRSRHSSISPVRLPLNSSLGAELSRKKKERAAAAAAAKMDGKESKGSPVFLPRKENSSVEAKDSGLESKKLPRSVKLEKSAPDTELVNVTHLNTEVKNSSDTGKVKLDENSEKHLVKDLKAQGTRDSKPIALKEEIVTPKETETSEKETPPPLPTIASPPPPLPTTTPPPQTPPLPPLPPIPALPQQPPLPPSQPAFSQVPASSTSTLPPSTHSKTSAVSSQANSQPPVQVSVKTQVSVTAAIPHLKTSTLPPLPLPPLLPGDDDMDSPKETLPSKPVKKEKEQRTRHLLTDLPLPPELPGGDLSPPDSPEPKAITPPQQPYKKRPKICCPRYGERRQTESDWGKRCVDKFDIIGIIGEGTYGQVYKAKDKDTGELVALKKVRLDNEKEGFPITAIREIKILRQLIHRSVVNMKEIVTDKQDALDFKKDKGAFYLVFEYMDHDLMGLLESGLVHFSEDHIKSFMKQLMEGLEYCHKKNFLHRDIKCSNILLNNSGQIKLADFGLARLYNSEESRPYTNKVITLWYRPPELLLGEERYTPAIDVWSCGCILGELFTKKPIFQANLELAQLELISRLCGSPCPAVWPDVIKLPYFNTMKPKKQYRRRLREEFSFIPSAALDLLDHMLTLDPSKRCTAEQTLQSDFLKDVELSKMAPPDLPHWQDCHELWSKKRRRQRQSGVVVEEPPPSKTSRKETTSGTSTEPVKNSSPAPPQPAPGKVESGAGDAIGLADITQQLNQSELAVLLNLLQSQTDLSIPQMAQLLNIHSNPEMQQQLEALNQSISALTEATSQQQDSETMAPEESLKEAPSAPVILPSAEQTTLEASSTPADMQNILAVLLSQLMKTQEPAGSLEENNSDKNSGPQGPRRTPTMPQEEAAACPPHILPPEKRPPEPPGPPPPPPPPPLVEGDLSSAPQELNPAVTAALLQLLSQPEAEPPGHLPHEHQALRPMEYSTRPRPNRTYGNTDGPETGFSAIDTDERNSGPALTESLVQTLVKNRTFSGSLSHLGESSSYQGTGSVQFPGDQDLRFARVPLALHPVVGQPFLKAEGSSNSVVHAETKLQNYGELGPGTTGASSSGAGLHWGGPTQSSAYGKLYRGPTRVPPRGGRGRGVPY
T2 sequence (O75909 whole entry partner): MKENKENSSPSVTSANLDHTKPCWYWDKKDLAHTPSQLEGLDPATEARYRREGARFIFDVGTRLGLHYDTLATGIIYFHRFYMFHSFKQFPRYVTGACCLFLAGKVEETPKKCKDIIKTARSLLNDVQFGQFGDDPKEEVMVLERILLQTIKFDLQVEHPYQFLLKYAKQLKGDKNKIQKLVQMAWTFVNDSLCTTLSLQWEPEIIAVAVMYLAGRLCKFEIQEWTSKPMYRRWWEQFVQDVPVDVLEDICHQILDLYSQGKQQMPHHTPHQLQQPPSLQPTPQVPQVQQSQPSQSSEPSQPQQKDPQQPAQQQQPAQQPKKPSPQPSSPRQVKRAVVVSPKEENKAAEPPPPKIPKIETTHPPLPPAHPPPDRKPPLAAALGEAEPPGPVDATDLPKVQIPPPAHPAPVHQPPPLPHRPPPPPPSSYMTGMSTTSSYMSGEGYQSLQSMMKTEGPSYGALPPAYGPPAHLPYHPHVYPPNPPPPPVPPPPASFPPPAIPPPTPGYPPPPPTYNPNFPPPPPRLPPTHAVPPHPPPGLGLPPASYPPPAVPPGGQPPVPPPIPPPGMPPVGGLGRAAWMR
Description: In the context of the present invention, the term “DC50 CDK12” refers to the DC50 values obtained according to the assay described in this section (6) herein below, i.e. the DC50 values for the degradation of CDK12.
CAL-120 human breast cancer cells (DSMZ ACC 459) are seeded in 1536-well microtiter plates (800 cells per well) containing 50 nanoL of compounds in Dose-Response. Control wells received DMSO or Reference Example 1. Plates are then incubated for 24 h at 37° C. in an humidified incubator and fixed with 4% PFA for 10 min. Then immunofluorescence (IF) against CDK12 (CellSignalling CDK12 Antibody #11973, rabbit, 1:100 dilution) is performed using standard IF protocols. Cells are then stained with Hoechst 33342 (Life Technologies, H-1399, 0.1 microg/ml) and imaged on an automated confocal microscopy system (e.g. Perkin Elmer Opera Phenix). Nuclear and cytoplasmic intensity as well as the nuclear/cytoplasmic intensity ratio is determined by automated image analysis using custom generated scripts (MetaXpress). Data is then transferred to Genedata Screener software, normalized to DMSO and control and DC50 values (degrading concentration to achieve 50% reduction of nuclear CDK12 staining intensity relative to controls) are reported.

Work on CN1CCN(c2nc(NCc3nc4cc(F)ccc4[nH]3)c3ncc(Br)n3n2)CC1 [Example 21, 7-bromo-N-[(5-fluoro-1H-benzimidazol-2-yl)methyl]-2-(4-methylpiperazin-1-yl)imidazo[2,1-f][1,2,4]triazin-4-amine] yielded an IC50 (CDK2/CycE) of over 20000 nM, an IC50 [1] of 19.7 nM and a DC50 (CDK12) of 2.78 nM. For the same molecule, the “(IC50 CDK12 high ATP) to (Degradation DC50 CDK12) ratio” value (CDK12) was 5916.
Work on Fc1ccc2[nH]c(CNc3nc(N4CCOCC4)nn4c(Br)cnc34)nc2c1F [Example 7, 7-bromo-N-[(4,5-difluoro-1H-benzimidazol-2-yl)methyl]-2-(morpholin-4-yl)imidazo[2,1-f][1,2,4]triazin-4-amine] yielded an IC50 (CDK2/CycE) of over 20000 nM, an IC50 [1] of 7.93 nM and a DC50 (CDK12) of 0.992 nM. For the same molecule, the “(IC50 CDK12 high ATP) to (Degradation DC50 CDK12) ratio” value (CDK12) was 1272.
COc1cccc2[nH]c(CNc3nc(N4C[C@@H](C)N[C@@H](C)C4)nn4c(Br)cnc34)nc12 [Example 14, 7-bromo-2-[rel-(3R,5S)-3,5-dimethylpiperazin-1-yl]-N-[(4-methoxy-1H-benzimidazol-2-yl)methyl]imidazo[2,1-f][1,2,4]triazin-4-amine] gave an IC50 (CDK2/CycE) of over 20000 nM, an IC50 [1] of 3.91 nM and a DC50 (CDK12) of 0.495 nM. The “(IC50 CDK12 high ATP) to (Degradation DC50 CDK12) ratio” value (CDK12) was 4066.
